Assay results published in ChEMBL document CHEMBL3044556, “Managing weeds with drip-applied herbicides in tomato” (2008).

Tests used:
Assay type in all cases: functional
Amaranthus dubius [1] = experiment: Pre-emergence herbicidal activity against Amaranthus dubius in tomato field assessed as number of weeds at 0.80 kg/ha applied through drip lines/backpack-spray on week 3 to 4 before transplanting measured 12 weeks after treatment (reference value: 9 plants/m2)
Digitaria [2] = experiment: Pre-emergence herbicidal activity against Digitaria spp. in tomato field assessed as extra-large fruit weight at 0.80 kg/ha applied through drip lines/backpack-spray on week 3 to 4 before transplanting (reference value: 7.3 t/ha)
Eleusine indica [3] = experiment: Pre-emergence herbicidal activity against Eleusine indica in tomato field assessed as number of extra-large fruits at 0.80 kg/ha applied through drip lines/backpack-spray on week 3 to 4 before transplanting (reference value: 21.3 x 10 '3 ha); conditions: pooled result: one value given for 8 cell lines, strains, targets or settings
Corynandra viscosa [4] = experiment: Pre-emergence herbicidal activity against Cleome viscosa in tomato field assessed as number of weeds at 0.80 kg/ha applied through drip lines/backpack-spray on week 3 to 4 before transplanting measured 12 weeks after treatment (reference value: 9 plants/m2)
Digitaria [5] = experiment: Pre-emergence herbicidal activity against Digitaria spp. in tomato field assessed as number of weeds at 0.80 kg/ha applied through drip lines/backpack-spray on week 3 to 4 before transplanting measured 7 weeks after treatment (reference value: 9 plants/m2)
Trianthema [6] = experiment: Pre-emergence herbicidal activity against Trianthema spp. in tomato field assessed as number of weeds at 0.80 kg/ha applied through drip lines/backpack-spray on week 3 to 4 before transplanting measured 12 weeks after treatment (reference value: 9 plants/m2)
Eleusine indica [7] = experiment: Pre-emergence herbicidal activity against Eleusine indica in tomato field assessed as total fruit weight at 0.80 kg/ha applied through drip lines/backpack-spray on week 3 to 4 before transplanting (reference value: 13.7 t/ha); conditions: pooled result: one value given for 8 cell lines, strains, targets or settings
Boerhavia erecta [8] = experiment: Pre-emergence herbicidal activity against Boerhavia erecta in tomato field assessed as number of weeds at 0.80 kg/ha applied through drip lines/backpack-spray on week 3 to 4 before transplanting measured 7 weeks after treatment (reference value: 9 plants/m2)
Amaranthus dubius [9] = experiment: Pre-emergence herbicidal activity against Amaranthus dubius in tomato field assessed as extra-large fruit weight at 0.80 kg/ha applied through drip lines/backpack-spray on week 3 to 4 before transplanting (reference value: 7.3 t/ha)
Eleusine indica [10] = experiment: Pre-emergence herbicidal activity against Eleusine indica in tomato field assessed as number of weeds at 0.80 kg/ha applied through drip lines/backpack-spray on week 3 to 4 before transplanting measured 7 weeks after treatment (reference value: 9 plants/m2)
Eleusine indica [11] = experiment: Pre-emergence herbicidal activity against Eleusine indica in tomato field assessed as extra-large fruit weight at 0.80 kg/ha applied through drip lines/backpack-spray on week 3 to 4 before transplanting (reference value: 7.3 t/ha)
Amaranthus dubius [12] = experiment: Pre-emergence herbicidal activity against Amaranthus dubius in tomato field assessed as number of weeds at 0.80 kg/ha applied through drip lines/backpack-spray on week 3 to 4 before transplanting measured 7 weeks after treatment (reference value: 9 plants/m2)
Eleusine indica [13] = experiment: Pre-emergence herbicidal activity against Eleusine indica in tomato field assessed as number of weeds at 0.80 kg/ha applied through drip lines/backpack-spray on week 3 to 4 before transplanting measured 12 weeks after treatment (reference value: 9 plants/m2)
Portulaca oleracea [14] = experiment: Pre-emergence herbicidal activity against Portulaca oleracea in tomato field assessed as extra-large fruit weight at 0.80 kg/ha applied through drip lines/backpack-spray on week 3 to 4 before transplanting (reference value: 7.3 t/ha)
Poaceae [15] = experiment: Pre-emergence herbicidal activity against Poaceae (grass family) in tomato field assessed as number of weeds at 0.80 kg/ha applied through drip lines/backpack-spray on week 3 to 4 before transplanting measured 7 weeks after treatment (reference value: 6 plants/m2)
Portulaca oleracea [16] = experiment: Pre-emergence herbicidal activity against Portulaca oleracea in tomato field assessed as number of weeds at 0.80 kg/ha applied through drip lines/backpack-spray on week 3 to 4 before transplanting measured 12 weeks after treatment (reference value: 9 plants/m2)
Echinochloa colona [17] = experiment: Pre-emergence herbicidal activity against Echinochloa colona in tomato field assessed as extra-large fruit weight at 0.80 kg/ha applied through drip lines/backpack-spray on week 3 to 4 before transplanting (reference value: 7.3 t/ha)
Echinochloa colona [18] = experiment: Pre-emergence herbicidal activity against Echinochloa colona in tomato field assessed as number of weeds at 0.80 kg/ha applied through drip lines/backpack-spray on week 3 to 4 before transplanting measured 12 weeks after treatment (reference value: 9 plants/m2)
Digitaria [19] = experiment: Pre-emergence herbicidal activity against Digitaria spp. in tomato field assessed as number of weeds at 0.80 kg/ha applied through drip lines/backpack-spray on week 3 to 4 before transplanting measured 12 weeks after treatment (reference value: 9 plants/m2)
Boerhavia erecta [20] = experiment: Pre-emergence herbicidal activity against Boerhavia erecta in tomato field assessed as number of weeds at 0.80 kg/ha applied through drip lines/backpack-spray on week 3 to 4 before transplanting measured 12 weeks after treatment (reference value: 9 plants/m2)
Trianthema [21] = experiment: Pre-emergence herbicidal activity against Trianthema spp. in tomato field assessed as number of weeds at 0.80 kg/ha applied through drip lines/backpack-spray on week 3 to 4 before transplanting measured 7 weeks after treatment (reference value: 9 plants/m2)
Echinochloa colona [22] = experiment: Pre-emergence herbicidal activity against Echinochloa colona in tomato field assessed as number of weeds at 0.80 kg/ha applied through drip lines/backpack-spray on week 3 to 4 before transplanting measured 7 weeks after treatment (reference value: 9 plants/m2)
Poaceae [23] = experiment: Pre-emergence herbicidal activity against Poaceae (grass family) in tomato field assessed as number of weeds at 0.80 kg/ha applied through drip lines/backpack-spray on week 3 to 4 before transplanting measured 12 weeks after treatment (reference value: 8 plants/m2)
Corynandra viscosa [24] = experiment: Pre-emergence herbicidal activity against Cleome viscosa in tomato field assessed as number of weeds at 0.80 kg/ha applied through drip lines/backpack-spray on week 3 to 4 before transplanting measured 7 weeks after treatment (reference value: 9 plants/m2)
Cyperus [25] = experiment: Pre-emergence herbicidal activity against Cyperus in tomato field assessed as number of weeds at 0.80 kg/ha applied through drip lines/backpack-spray on week 3 to 4 before transplanting measured 12 weeks after treatment (reference value: 5 plants/m2)
Cyperus [26] = experiment: Pre-emergence herbicidal activity against Cyperus in tomato field assessed as number of weeds at 0.80 kg/ha applied through drip lines/backpack-spray on week 3 to 4 before transplanting measured 7 weeks after treatment (reference value: 3 plants/m2)
Corynandra viscosa [27] = experiment: Pre-emergence herbicidal activity against Cleome viscosa in tomato field assessed as extra-large fruit weight at 0.80 kg/ha applied through drip lines/backpack-spray on week 3 to 4 before transplanting (reference value: 7.3 t/ha)
Portulaca oleracea [28] = experiment: Pre-emergence herbicidal activity against Portulaca oleracea in tomato field assessed as number of weeds at 0.80 kg/ha applied through drip lines/backpack-spray on week 3 to 4 before transplanting measured 7 weeks after treatment (reference value: 9 plants/m2)
Eleusine indica [29] = experiment: Pre-emergence herbicidal activity against Eleusine indica in tomato field assessed as total number of fruits at 0.80 kg/ha applied through drip lines/backpack-spray on week 3 to 4 before transplanting (reference value: 49.5 x 10 '3 ha); conditions: pooled result: one value given for 8 cell lines, strains, targets or settings
Trianthema [30] = experiment: Pre-emergence herbicidal activity against Trianthema spp. in tomato field assessed as extra-large fruit weight at 0.80 kg/ha applied through drip lines/backpack-spray on week 3 to 4 before transplanting (reference value: 7.3 t/ha)
Boerhavia erecta [31] = experiment: Pre-emergence herbicidal activity against Boerhavia erecta in tomato field assessed as extra-large fruit weight at 0.80 kg/ha applied through drip lines/backpack-spray on week 3 to 4 before transplanting (reference value: 7.3 t/ha)

CCCN(CCC)c1c([N+](=O)[O-])cc(C(F)(F)F)cc1[N+](=O)[O-] [TRIFLURALIN]
7 /m2: Activity (Amaranthus dubius [1]) | Activity (Corynandra viscosa [4]) | Activity (Trianthema [6]) | Activity (Eleusine indica [13]) | Activity (Portulaca oleracea [16]) | Activity (Echinochloa colona [18]) | Activity (Digitaria [19]) | Activity (Boerhavia erecta [20])
59.5 10^3 fruits/ha: fruit number (Eleusine indica [29])
10 /m2: Activity (Digitaria [5]) | Activity (Boerhavia erecta [8]) | Activity (Eleusine indica [10]) | Activity (Amaranthus dubius [12]) | Activity (Trianthema [21]) | Activity (Echinochloa colona [22]) | Activity (Corynandra viscosa [24]) | Activity (Portulaca oleracea [28])
6 /m2: Activity (Poaceae [15])
9.6 tons/ha: Activity (Digitaria [2]) | Activity (Amaranthus dubius [9]) | Activity (Eleusine indica [11]) | Activity (Portulaca oleracea [14]) | Activity (Echinochloa colona [17]) | Activity (Corynandra viscosa [27]) | Activity (Trianthema [30]) | Activity (Boerhavia erecta [31])
29.5 10^3 fruits/ha: fruit count (Eleusine indica [3])
8 /m2: Activity (Cyperus [25])
15.9 tons/ha: Activity (Eleusine indica [7])
5 /m2: Activity (Poaceae [23]) | Activity (Cyperus [26])
